Measurements taken from the supplement of paper PMC10883282.
± gives the standard deviation of the averaged measurements.

System: SW684
Assay: relative viability vs DMSO control (72 h) (fraction); higher = more viable cells
Outline: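 Densities for seeding sarcoma cell lines into 384-well plates were set to give 80–90% confluence. After 24 h, 2.5 µl of serially diluted compound from source plates of 10 mM to 0.0002 mM went in, and plates stayed 72 h at 37 °C in 5% CO2 with 0.1% DMSO vehicle and a 5 µM positive control. Percent growth from ATPLite readings, averaged over up to triplicate wells, served as relative viability, rescaled so 1 means full and 0 means none.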

Structure (SMILES) | relative viability (0.00017 µM) | relative viability (0.00051 µM) | relative viability (0.00152 µM) | relative viability (0.00457 µM) | relative viability (0.01372 µM) | relative viability (0.04115 µM) | relative viability (0.1235 µM) | relative viability (0.3704 µM) | relative viability (1.111 µM) | relative viability (3.333 µM) | relative viability (10 µM)
CCCS(=O)(=O)Nc1ccc(F)c(C(=O)c2c[nH]c3ncc(-c4ccc(Cl)cc4)cc23)c1F [Vemurafenib] | 1.18 ± 0.038 | 1.26 ± 0.02 | 1.18 ± 0.073 | 1.21 ± 0.054 | 1.205 ± 0.0029 | 1.18 ± 0.032 | 1.207 ± 0.0074 | 1.21 ± 0.034 | 1.21 ± 0.035 | 1.04 ± 0.033 | 0.804 ± 0.17
C=CC(=O)N1CCC([C@@H]2CCNc3c(C(N)=O)c(-c4ccc(Oc5ccccc5)cc4)nn32)CC1 [Zanubrutinib] | 0.998 ± 0.075 | 1.03 ± 0.08 | 1 ± 0.07 | 0.998 ± 0.054 | 1 ± 0.069 | 1.01 ± 0.028 | 1.01 ± 0.047 | 0.978 ± 0.074 | 0.985 ± 0.048 | 0.925 ± 0.038 | 0.89 ± 0.042
CC(=O)Nc1cccc(-n2c(=O)n(C3CC3)c(=O)c3c(Nc4ccc(I)cc4F)n(C)c(=O)c(C)c32)c1 [Trametinib] | 1.16 ± 0.02 | 1.17 ± 0.045 | 1.19 ± 0.04 | 1.14 ± 0.035 | 1.05 ± 0.0092 | 0.859 ± 0.018 | 0.615 ± 0.0083 | 0.552 ± 0.011 | 0.511 ± 0.017 | 0.517 ± 0.0077 | 0.4614 ± 0.002
C=CC(=O)N1CCC[C@@H](n2nc(-c3ccc(Oc4ccccc4)cc3)c3c(N)ncnc32)C1 [Ibrutinib] | 1.18 ± 0.037 | 1.22 ± 0.063 | 1.2 ± 0.016 | 1.22 ± 0.026 | 1.17 ± 0.054 | 1.24 ± 0.054 | 1.15 ± 0.12 | 1.24 ± 0.061 | 1.26 ± 0.078 | 1.3 ± 0.071 | 1.06 ± 0.031
Cc1ccc(F)c(NC(=O)Nc2ccc(-c3cccc4[nH]nc(N)c34)cc2)c1 [Linifanib] | 1.11 ± 0.014 | 1.14 ± 0.02 | 1.13 ± 0.039 | 1.18 ± 0.03 | 1.17 ± 0.023 | 1.18 ± 0.04 | 1.15 ± 0.027 | 1.139 ± 0.011 | 1.16 ± 0.045 | 1.15 ± 0.049 | 1.12 ± 0.041
CC[C@H](Nc1ncnc2[nH]cnc12)c1nc2cccc(F)c2c(=O)n1-c1ccccc1 [Idelalisib] | 1.18 ± 0.064 | 1.22 ± 0.025 | 1.18 ± 0.07 | 1.23 ± 0.045 | 1.02 ± 0.08 | 0.946 ± 0.023 | 0.875 ± 0.049 | 0.772 ± 0.049 | 0.658 ± 0.053 | 0.6 ± 0.014 | 0.513 ± 0.017
CC(C)(C)c1cc(NC(=O)Nc2ccc(-c3cn4c(n3)sc3cc(OCCN5CCOCC5)ccc34)cc2)no1 [Quizartinib] | 1.11 ± 0.14 | 1.209 ± 0.012 | 1.21 ± 0.095 | 1.23 ± 0.019 | 1.2 ± 0.052 | 1.14 ± 0.012 | 1.21 ± 0.03 | 1.23 ± 0.061 | 1.14 ± 0.078 | 1.03 ± 0.038 | 0.734 ± 0.077
CNC(=O)c1cc(Oc2ccc(NC(=O)Nc3ccc(Cl)c(C(F)(F)F)c3)c(F)c2)ccn1 [Regorafenib] | 1.194 ± 0.0028 | 1.23 ± 0.02 | 1.22 ± 0.013 | 1.24 ± 0.049 | 1.21 ± 0.036 | 1.15 ± 0.031 | 1.21 ± 0.049 | 1.24 ± 0.036 | 1.32 ± 0.054 | 1.3 ± 0.03 | 0.772 ± 0.016
CNC(=O)c1ccc(-c2cnc3ncc(Cc4ccc5ncccc5c4)n3n2)cc1F [Capmatinib] | 1.19 ± 0.017 | 1.2 ± 0.043 | 1.19 ± 0.047 | 1.15 ± 0.056 | 1.12 ± 0.046 | 1.127 ± 0.0092 | 1.13 ± 0.029 | 1.14 ± 0.085 | 1.17 ± 0.06 | 1.13 ± 0.052 | 1.05 ± 0.045
